Measured values from the NIST ThermoML archive (doi:10.1016/j.tca.2011.01.039).
± gives the expanded uncertainty stated by the source.

Settings: Fluid (supercritical or subcritical phases)

O=C=O [carbon dioxide]
mass density [kg/m3]
Settings	10000 kPa	12000 kPa	15000 kPa	18000 kPa	21000 kPa
308 K	714.84 ± 7.1	768.42 ± 5.7	816.06 ± 5.3	848.87 ± 5.2	874.4 ± 5.2
318 K	502.57 ± 9.6	659.73 ± 7.3	743.17 ± 5.7	790.18 ± 5.3	823.71 ± 5.2
328 K	326.4 ± 11	506.85 ± 9	654.94 ± 6.6	724.13 ± 5.5	768.74 ± 5.3
